The target in test [1] is T1, human TRPV1 (Homo sapiens, UniProt Q8NER1).
T1 construct: using primers designed surrounding the complete hTRPV1 open reading frame; expressed in transfected cells; host or cells: CHO-K1 cells stably transfected with pcDNA3.1(-)-hVR1 plasmid
The test can be described thus: pH-based assay, Protocol 2 (TRPV1/CHO cells, Fura-2 AM, FDSS-3000, pH 5.0-5.1). The test is classed as cell-based. The settings on record: H2SO4 agonist, mean ± SEM, number of trials in parentheses, read-out: TRPV1 IC50 Potency, Human pH CHO (hpH-CHO). An excerpt: For Protocol 2, a Chinese Hamster Ovary cell line (CHO) that has been engineered to constitutively express human recombinant TRPV1 was used (TRPV1/CHO cells). The TRPV1/CHO cell line was generated as described below.
The resulting PCR products were purified from agarose gels using Gel Band Purification Kit (GE Healthcare Bioscience) and were subcloned into pCR-Blunt vector (Invitrogen). The cloned cDNA was fully sequenced using a fluorescent dye-terminator reagent (BigDye Terminator ver3.1 Cycle Sequencing Kit, Applied Biosystems) and ABI Prism 3100 genetic analyzer (Applied Biosystems). The pCR-Blunt vector containing the hTRPV1 cDNA was subjected to restriction digestion with EcoRI. The restriction fragment was subcloned into expression vector pcDNA3.1 (−) (Invitrogen) and named pcDNA3.1 (−)-hVR1 plasmid. The sequence of the cDNA encoding TRPV1 is available at GenBank accession number AJ277028.
CHO-K1 cells were maintained in growth medium consisting of α-MEM, 10% FBS (Hyclone), and 100 IU/mL of penicillin-100 μg/mL of streptomycin mixed solution (Nacalai Tesque, Japan) at 37° C. in an environment of humidified 95% air and 5% CO2. The cells were transfected with the pcDNA3.1 (−)-hVR1 plasmid using FuGENE6 (Roche) according to the manufacturer's protocol. 24 hr after transfection, neomycin-resistant cells were selected using 1 mg/mL G418 (Nacalai Tesque). After 2 weeks, individual colonies were picked, expanded, and screened for the expression of hTRPV1 in the capsaicin-induced Ca^2+ influx assay (see below) with a FLIPR (Molecular Devices). A clone with the largest Ca^2+ response to capsaicin was selected and re-cloned by the same procedure. The cells expressing hTRPV1 were cultured in the growth medium supplemented with 1 mg/mL G418.
TRPV1/CHO cells were seeded in the 96-well clear-bottom black-wall plate (Nunc) at densities of 1-2×10^4 cells/well and grown in 100 μL of culture medium (alpha-MEM supplemented with 10% FBS, 20 mM HEPES, 1 mg/mL geneticin and 1% antibiotic-antimycotic mixed stock solution) for 1-2 days before the experiment.
Different agonist solutions with sulfuric acid concentrations of from 15 mM to 18 mM (see FIG. 1) were prepared by diluting 1M sulfuric acid with measuring buffer. The different sulfuric acid concentrations in the agonist solutions were selected such that a 1:4 dilution would result in a final sulfuric acid concentration of between 3.0 mM to 3.6 mM, respectively, as indicated in FIG. 1.
The cells were stimulated using 3.0 mM (well number B1-6), 3.1 mM (C1-6), 3.2 mM (D1-6), 3.3 mM (E1-6), 3.4 mM (F1-6), 3.5 mM (G1-6), or 3.6 mM (H1-6) H2SO4 or pH 7.2 measuring buffer without H2SO4 (A1-6) (FIG. 2).
(1) Culture medium was removed using an 8-channel-pipette (Rainin, USA) from the 96-well plate and the wells were refilled with 100 μL of loading buffer (20 mM HEPES, 115 mM NaCl, 5.4 mM KCl, 0.8 mM MgCl2, 1.8 mM CaCl2, 13.8 mM D-glucose, 2.5 mM probenecid, pH 7.4) containing 5 μM Fura-2 AM (Dojin, Japan).
(2) The 96-well plate was incubated at 37° C. for 45 min.
(3) The loading buffer was removed from each well. The cells were subsequently washed twice with 150 μL of measuring buffer (20 mM HEPES, 115 mM NaCl, 5.4 mM KCl, 0.8 mM MgCl2, 5.0 mM CaCl2, 13.8 mM D-glucose, 0.1% BSA, pH 7.4) (no probenecid). The wells were then refilled with 80 μL of measuring buffer.
(4) After an incubation at 4° C. for 15 min, the 96-well plate was transferred to FDSS-3000 (Hamamatsu Photonics, Japan).
(5) The Fura-2 fluorescent intensity was monitored at a wavelength of 340 nm and at 380 nm, respectively, at a rate of 0.5 Hz for a total of 240 seconds.

The target of test [2] is T1, human TRPV1. The experiment in a line: Capsaicin-based assay, Protocol 2 (TRPV1/CHO cells, Fluo-4, FLIPR). The test is classed as cell-based. The settings on record: capsaicin 100 nM final, mean ± SEM, number of trials in parentheses, read-out: TRPV1 IC50 Potency, Human Capsaicin CHO (hCAP-CHO). An excerpt:
The TRPV1/CHO cell line was generated as described below. […] The resulting PCR products were purified from agarose gels using Gel Band Purification Kit (GE Healthcare Bioscience) and were subcloned into pCR-Blunt vector (Invitrogen). The cloned cDNA was fully sequenced using a fluorescent dye-terminator reagent (BigDye Terminator ver3.1 Cycle Sequencing Kit, Applied Biosystems) and ABI Prism 3100 genetic analyzer (Applied Biosystems). The pCR-Blunt vector containing the hTRPV1 cDNA was subjected to restriction digestion with EcoRI. The restriction fragment was subcloned into expression vector pcDNA3.1 (-) (Invitrogen) and named pcDNA3.1 (-)-hVR1 plasmid. The sequence of the cDNA encoding TRPV1 is available at GenBank accession number AJ277028. […] The cells were transfected with the pcDNA3.1 (-)-hVR1 plasmid using FuGENE6 (Roche) according to the manufacturer's protocol. 24 hr after transfection, neomycin-resistant cells were selected using 1 mg/mL G418 (Nacalai Tesque). […] The cells expressing hTRPV1 were cultured in the growth medium supplemented with 1 mg/mL G418. […] Subsequently, the cells were loaded by incubation in 0.1 mL of wash buffer containing Fluo-4 at 3 μM final concentration. After 1 hour, the cells were washed twice with 0.2 mL wash buffer and resuspended in 0.1 mL wash buffer. The plates were then transferred to a Fluorescence Imaging Plate Reader (Molecular Devices). Fluorescence intensity was monitored for 15 seconds to establish a baseline. […] The final concentration of the compound was adjusted to range from 100 μM to 1.5625 μM. […] Data were collected over the entire time course and analyzed using Excel and the curve-fitting formula GraphPad Prism.

As a reminder, the IC50 is the concentration at which inhibition is half-maximal.

T1 sequence (Q8NER1 whole entry): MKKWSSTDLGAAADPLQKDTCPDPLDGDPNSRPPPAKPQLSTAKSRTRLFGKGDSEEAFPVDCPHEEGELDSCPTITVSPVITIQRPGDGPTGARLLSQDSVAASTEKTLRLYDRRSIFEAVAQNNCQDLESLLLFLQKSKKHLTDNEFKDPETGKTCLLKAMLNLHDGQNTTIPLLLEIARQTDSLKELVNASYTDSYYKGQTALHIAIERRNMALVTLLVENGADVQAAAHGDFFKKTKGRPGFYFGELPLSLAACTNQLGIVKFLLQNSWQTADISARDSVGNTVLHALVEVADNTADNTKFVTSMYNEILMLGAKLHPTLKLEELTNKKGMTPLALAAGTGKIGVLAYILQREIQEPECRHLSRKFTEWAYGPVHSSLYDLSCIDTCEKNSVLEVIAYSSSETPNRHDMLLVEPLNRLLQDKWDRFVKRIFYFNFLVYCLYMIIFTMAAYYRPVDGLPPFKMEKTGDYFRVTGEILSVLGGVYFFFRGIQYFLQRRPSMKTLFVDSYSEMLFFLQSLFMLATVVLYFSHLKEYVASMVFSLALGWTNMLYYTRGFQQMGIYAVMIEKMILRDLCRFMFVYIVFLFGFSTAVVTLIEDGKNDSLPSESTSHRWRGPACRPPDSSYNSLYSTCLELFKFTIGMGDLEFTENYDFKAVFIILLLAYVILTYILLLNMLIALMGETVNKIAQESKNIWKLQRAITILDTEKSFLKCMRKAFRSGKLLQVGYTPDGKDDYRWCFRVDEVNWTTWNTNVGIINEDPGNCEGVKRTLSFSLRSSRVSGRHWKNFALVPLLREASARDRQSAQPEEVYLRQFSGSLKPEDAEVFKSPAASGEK

Take `Cc1ccc(NC(=O)N2CC=C(c3ncc([C@H](O)CO)cc3Cl)CC2)cc1C(F)(F)F` [Compound I5]: the IC50 at human TRPV1 [1] was 118 ± 27.5 nM; at human TRPV1 [2], 709 ± 94.1 nM.

On to `O=C(Nc1ccc(C(F)(F)F)c(F)c1)N1CC=C(c2ncc([C@H](O)CO)cc2F)CC1` [Compound J1], for which the IC50 came out at 18 nM on human TRPV1 [1] and 34.5 ± 17.5 nM at human TRPV1 [2].

Turning to `O=C(Nc1ccc(C(F)(F)F)cn1)N1CC=C(c2ncc([C@H](O)CO)cc2Cl)CC1` [Compound K1], the figures for the IC50 on human TRPV1 [1] and on human TRPV1 [2] were 39.5 nM and 35.1 ± 8.8 nM, respectively.

Take `O=C(Nc1ccc(Cl)c(C(F)(F)F)c1)N1CC=C(c2ncc([C@H](O)CO)cc2F)CC1` [Compound K2]: the IC50 at human TRPV1 [1] turned out to be 47.2 ± 6.7 nM; at human TRPV1 [2] it was 141 ± 41.9 nM.

In the case of `CC(C)(C)c1ccc(NC(=O)N2CCN(c3ncc([C@H](O)CO)cc3Cl)CC2)cc1` [Compound K6, (S)—N-(4-tert-butylphenyl)-4-(3-chloro-5-(1,2-dihydroxyethyl)pyridin-2-yl)piperazine-1-carboxamide], the figures for the half-inhibitory concentration (IC50) on human TRPV1 [1] and on human TRPV1 [2] were 0.8 ± 0.1 nM and 9.8 ± 2.3 nM, respectively.

In the case of `O=C(Nc1nc2ccc(F)cc2s1)N1CCC(F)(c2ncc([C@H](O)CO)cc2Cl)CC1` [Compound L1, (S)-4-(3-chloro-5-(1,2-dihydroxyethyl)pyridin-2-yl)-4-fluoro-N-(6-fluorobenzo[d]thiazol-2-yl)piperidine-1-carboxamide], the values for the IC50 at human TRPV1 [1] and at human TRPV1 [2] were 27.5 ± 3.4 nM and 35.3 ± 12 nM, respectively.

For the compound `O=C(Nc1ccc(C(F)(F)F)c(Cl)c1)N1CC=C(c2ncc(CO)cc2Cl)CC1` [Compound L2], the IC50 turned out to be 57.4 ± 9.1 nM on human TRPV1 [1] and 153 ± 24.4 nM at human TRPV1 [2].

As for `O=C(Nc1ccc(C(F)(F)F)cc1)N1CC=C(c2ncc([C@@H](O)CO)cc2Cl)CC1` [Compound L3], the IC50 was determined as 38.3 ± 4 nM on human TRPV1 [1] and 37.1 ± 14.8 nM at human TRPV1 [2].

Turning to `O=C(Nc1ccc(OC(F)(F)F)cc1)N1CCN(c2ncc([C@H](O)CO)cc2Cl)CC1` [Compound L6, (S)-4-(3-chloro-5-(1,2-dihydroxyethyl)pyridin-2-yl)-N-(4-(trifluoromethoxy)phenyl)piperazine-1-carboxamide], the figures for the IC50 at human TRPV1 [1] and on human TRPV1 [2] were 5.8 nM and 14.2 ± 1.4 nM, respectively.

`O=C(Nc1ccc(OC(F)(F)F)c(Cl)c1)N1CCC(F)(c2ncc([C@H](O)CO)cc2Cl)CC1` [Compound M1]: the half-inhibitory concentration (IC50) at human TRPV1 [1] is 5.7 ± 0.3 nM; at human TRPV1 [2], 37.5 ± 9 nM.

`O=C(Nc1ccc(C(F)(F)F)c(F)c1)N1CC=C(c2ncc(CO)cc2Cl)CC1` [Compound M2]: the IC50 was determined as 42 ± 9.1 nM on human TRPV1 [1] and 156 ± 5.6 nM at human TRPV1 [2].

As for `O=C(Nc1ccc(C(F)(F)F)c(Cl)c1)N1CC=C(c2ncc([C@@H](O)CO)cc2Cl)CC1` [Compound M3], the IC50 on human TRPV1 [1] came to 30 ± 2.1 nM; on human TRPV1 [2] it was 187 ± 43.7 nM.

As for `O=C(Nc1ccc(C(F)(F)F)cc1)N1CCN(c2ncc([C@H](O)CO)cc2Cl)CC1` [Compound M6, (S)-4-(3-chloro-5-(1,2-dihydroxyethyl)pyridin-2-yl)-N-(4-(trifluoromethyl)phenyl)piperazine-1-carboxamide], the IC50 on human TRPV1 [1] turned out to be 3.5 ± 1 nM; at human TRPV1 [2] it was 7 ± 1 nM.

For the compound `CCOc1cc(NC(=O)N2CC=C(c3ncc(CO)cc3Cl)CC2)ccc1C(F)(F)F` [Compound N2], the results for the IC50 at human TRPV1 [1] and on human TRPV1 [2] were 27.3 ± 2.6 nM and 161 ± 16.6 nM, respectively.

Take `O=C(Nc1ccc(C(F)(F)F)cn1)N1CC=C(c2ncc([C@@H](O)CO)cc2Cl)CC1` [Compound N3, (R)-4-(3-chloro-5-(1,2-dihydroxyethyl)pyridin-2-yl)-N-(5-(trifluoromethyl)pyridin-2-yl)-5,6-dihydropyridine-1(2H)-carboxamide]: the 50% inhibitory concentration (IC50) at human TRPV1 [1] is 223 ± 14 nM; at human TRPV1 [2] it was 161 ± 41.7 nM.

For the compound `CCCOc1cc(NC(=O)N2CC=C(c3ncc(CO)cc3Cl)CC2)ccc1C(F)(F)F` [Compound O2], the half-maximal inhibitory concentration (IC50) was 18.8 ± 4 nM on human TRPV1 [1] and 162 ± 29.5 nM at human TRPV1 [2].

For `O=C(Nc1ccc(Br)c(C(F)(F)F)c1)N1CC=C(c2ncc([C@H](O)CO)cc2Cl)CC1` [Compound P2], the IC50 on human TRPV1 [1] came out at 44.4 nM; at human TRPV1 [2] it was 173 ± 40.3 nM.
